Experimental data published in patent publication US8618111B2, “5-alkynyl-pyrimidines” (Boehringer Ingelheim International GmbH, priority 2010, dated 2013).
pEC50, pIC50: −log10 of the molar value.

Experiments:
[1] = target: PI3Kalpha (Homo sapiens (Human), UniProt P42336); test: Inhibition of PI3Kalpha-induced PIP-2 phosphorylation (filter-binding assay); type: biochemical; conditions: 33P-ATP
Method: Inhibition of PI3Kalpha-Induced PIP-2 Phosphorylation
Method Type: Filter-Binding-Assay
Aliquoted in desired amounts and stored at −80° C. Final assay concentration 25 ng/well.

[2] = target: mTOR (Homo sapiens (Human), UniProt P42345); test: mTOR kinase activity assay (phosphorylation status of mTOR substrate 4E-BP1; TR-FRET); type: biochemical; conditions: GFP-4E-BP1 substrate, 8 μM ATP
Method: mTOR Kinase Activity Assay
(Phosphorylation Status of mTOR Substrate 4E-BP1; TR-FRET)
The mTOR kinase TR-FRET assay utilizes a physiologically relevant protein substrate for mTOR (4E-BP1, labeled with an acceptor fluorophore (Green Fluorescent Protein) and paired with a corresponding Tb-labeled phospho-specific antibody.
The assay itself is divided into two phases: the reaction phase and the detection phase. In the reaction phase, all components required for the kinase reaction are added to the well, including the labeled protein substrate. The reaction is allowed to incubate for 60 minutes. After the reaction, EDTA is added to stop the kinase reaction, and terbium-labeled antibody is added to bind phosphorylated product. Because the terbium chelate is stable at the EDTA concentrations used to stop a kinase assay, the antibody and EDTA can be pre-mixed prior to addition to minimize pipetting steps. Binding of the terbium labeled antibody to the fluorophore-labeled phosphorylated product brings the terbium and GFP into proximity, resulting in an increase in TR-FRET. In the presence of an inhibitor, formation of phosphorylated product is reduced, and the TR-FRET value is decreased.
• GFP-4E-BP1 substrate; Invitrogen order no. PV4759 • Lanthascreen Tb-anti-p4E-BP1 (pThr46) Antibody Kit; Invitrogen order no. PV4758 • FRAP1 (mTOR) kinase; Invitrogen order no.
400 nM GFP-4E-BP1, 8 μM ATP, ˜150 ng/mL mTOR, 50 mM HEPES pH 7.5, 0.01% Polysorbate 20, 1 mM EGTA, 10 mM MnCl2, and variable amounts of test compounds.
Note: Thaw and keep mTOR, the substrate, ATP, and the antibody on ice prior to making working dilutions. Working dilutions of these components can be kept at room temperature for short periods of time the day of use. • 1. Add 2 ml of 5× Assay Buffer to 8 ml water to prepare 10 ml of 1× Assay Buffer, wherein the concentration of 1× Assay Buffer is 50 mM HEPES pH 7.5, 0.01% Polysorbate 20, 1 mM EGTA, and 10 mM MnCl2. • 2. Prepare Antibody/EDTA Solution by first adding 2.75 μl of Tb-anti p4E-BP1 Antibody to 2397 μl of LanthaScreen™ TR-FRET Dilution Buffer. Then, add 100 μl of 0.5 M EDTA. • 3. […] Then, add 1.6 μl of mTOR (0.45 mg/mL). • 4. Prepare ATP Solution by adding 3.2 μl of 10 mM ATP to 1997 μl of 1× Assay Buffer. Serial Dilution of Inhibitors (16 Point Curve)
Inhibitors are serially diluted in DMSO, then diluted to a 4× working concentration with 1× Assay Buffer. • 1. Dispense 40 μl of DMSO to two adjacent columns of a 96 well plate per compound (e.g. columns 1 and 2). • 2. Add 10 μl of inhibitor stock (10 mM) to the first well of the first column (A1) and mix. • 3. Remove 10 μl from A1 and transfer to the adjacent well in the next column (B1) and mix. • 4. Remove 10 μl from B1 and transfer to the next well in the first column (B2) and mix. • 5. […] Remove 4 μl of diluted compounds and add to 96 μl of 1× Assay Buffer in a 96-well plate making 4× compound dilutions. Kinase Reaction • 1. Add 2.5 μl of 4X compound dilutions to a 384-well plate. • 2. […] Preincubate for […] at RT (shaker). • 5. Add 5 μl of ATP Solution to all wells to start reactions. • 6. Shake the assay plate on a plate shaker for 30 seconds. • 7. Incubate the assay plate for one hour at room temperature (20-25° C.). Stop Step and Fluorescence Detection • 1. Add 10 μl of Antibody/EDTA Solution to each well in columns 1-9. • 2. Shake the assay plate on a plate shaker for 30 seconds. • 3. Incubate the assay plate for one hour at room temperature (20-25° C.). • 4. Measure the GFP (FRET) and terbium (reference) emission signals on a fluorescence plate reader (e.g. Perkin Elmer Envision). Data Analysis • 1. Calculate the emission ratio for each sample by dividing the GFP (FRET) signal by the terbium (reference) signal. • 2.

[3] = test system: PC3 (human prostate carcinoma cell line) cells; test: PC3 proliferation test; type: cell-based; conditions: PC-3, 72 h, 3 days incubation, DNA dye fluorescence
Method: The test is based on measurement of cellular DNA content via fluorescent dye binding. Because cellular DNA content is highly regulated, it is closely proportional to cell number. The extent of proliferation is determined by comparing cell counts for samples treated with drugs with untreated controls.
PC3 (human prostate carcinoma cell line) cells are sown in microtitre plates and incubated overnight in culture medium at 37° C. and 5% CO2. The test substances are diluted stepwise and added to the cells such that the total volume is 200 μL/well. Cells to which diluent, but not substance, is added serve as controls.

Sequence of PI3Kalpha (P42336 whole entry, species assumed): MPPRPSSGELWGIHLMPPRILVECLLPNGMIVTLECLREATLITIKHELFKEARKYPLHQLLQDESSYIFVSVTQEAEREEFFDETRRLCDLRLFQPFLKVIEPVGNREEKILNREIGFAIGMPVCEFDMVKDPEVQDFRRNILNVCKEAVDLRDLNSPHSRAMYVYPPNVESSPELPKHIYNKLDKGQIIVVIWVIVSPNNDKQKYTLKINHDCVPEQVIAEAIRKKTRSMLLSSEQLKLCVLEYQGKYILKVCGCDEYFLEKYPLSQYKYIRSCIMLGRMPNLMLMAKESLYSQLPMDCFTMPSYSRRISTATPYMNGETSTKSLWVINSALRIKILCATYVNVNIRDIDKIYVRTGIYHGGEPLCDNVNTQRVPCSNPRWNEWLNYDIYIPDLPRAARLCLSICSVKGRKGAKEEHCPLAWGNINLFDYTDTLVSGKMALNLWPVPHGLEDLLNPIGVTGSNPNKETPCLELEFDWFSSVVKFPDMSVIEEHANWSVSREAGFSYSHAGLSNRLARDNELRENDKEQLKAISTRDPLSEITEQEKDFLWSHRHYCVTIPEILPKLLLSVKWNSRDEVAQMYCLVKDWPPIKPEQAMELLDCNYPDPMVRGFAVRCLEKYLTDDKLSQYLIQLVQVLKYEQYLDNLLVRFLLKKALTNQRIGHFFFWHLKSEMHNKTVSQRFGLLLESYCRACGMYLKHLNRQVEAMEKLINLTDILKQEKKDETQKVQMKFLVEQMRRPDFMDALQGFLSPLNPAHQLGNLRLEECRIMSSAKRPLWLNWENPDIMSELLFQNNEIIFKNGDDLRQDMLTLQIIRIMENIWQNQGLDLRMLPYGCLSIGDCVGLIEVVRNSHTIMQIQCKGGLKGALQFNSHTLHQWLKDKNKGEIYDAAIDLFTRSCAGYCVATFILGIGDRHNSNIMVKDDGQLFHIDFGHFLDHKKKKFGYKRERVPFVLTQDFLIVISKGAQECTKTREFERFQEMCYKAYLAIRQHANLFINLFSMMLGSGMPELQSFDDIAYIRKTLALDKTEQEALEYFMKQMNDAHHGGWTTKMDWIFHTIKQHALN
Sequence of PI3Kalpha (P27986 whole entry partner, species assumed): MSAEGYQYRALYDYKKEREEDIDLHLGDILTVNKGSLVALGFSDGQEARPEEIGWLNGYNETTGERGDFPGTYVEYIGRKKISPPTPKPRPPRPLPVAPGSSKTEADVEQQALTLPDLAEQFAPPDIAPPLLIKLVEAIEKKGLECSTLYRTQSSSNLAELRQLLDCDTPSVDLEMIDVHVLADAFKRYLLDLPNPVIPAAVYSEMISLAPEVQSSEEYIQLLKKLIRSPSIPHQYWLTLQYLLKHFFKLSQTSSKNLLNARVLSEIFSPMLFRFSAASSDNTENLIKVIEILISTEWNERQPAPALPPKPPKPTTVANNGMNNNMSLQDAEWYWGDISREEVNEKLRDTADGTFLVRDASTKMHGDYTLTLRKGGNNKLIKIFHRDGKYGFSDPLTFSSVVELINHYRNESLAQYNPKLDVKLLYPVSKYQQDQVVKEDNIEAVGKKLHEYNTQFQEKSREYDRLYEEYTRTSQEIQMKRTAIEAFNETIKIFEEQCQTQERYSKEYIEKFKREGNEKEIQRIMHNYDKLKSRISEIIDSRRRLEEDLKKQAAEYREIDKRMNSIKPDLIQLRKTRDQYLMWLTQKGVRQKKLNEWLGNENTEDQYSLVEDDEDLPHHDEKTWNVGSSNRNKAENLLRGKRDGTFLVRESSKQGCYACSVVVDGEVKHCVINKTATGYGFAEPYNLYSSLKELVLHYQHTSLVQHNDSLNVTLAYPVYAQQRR
Sequence of mTOR (P42345 1360-2549): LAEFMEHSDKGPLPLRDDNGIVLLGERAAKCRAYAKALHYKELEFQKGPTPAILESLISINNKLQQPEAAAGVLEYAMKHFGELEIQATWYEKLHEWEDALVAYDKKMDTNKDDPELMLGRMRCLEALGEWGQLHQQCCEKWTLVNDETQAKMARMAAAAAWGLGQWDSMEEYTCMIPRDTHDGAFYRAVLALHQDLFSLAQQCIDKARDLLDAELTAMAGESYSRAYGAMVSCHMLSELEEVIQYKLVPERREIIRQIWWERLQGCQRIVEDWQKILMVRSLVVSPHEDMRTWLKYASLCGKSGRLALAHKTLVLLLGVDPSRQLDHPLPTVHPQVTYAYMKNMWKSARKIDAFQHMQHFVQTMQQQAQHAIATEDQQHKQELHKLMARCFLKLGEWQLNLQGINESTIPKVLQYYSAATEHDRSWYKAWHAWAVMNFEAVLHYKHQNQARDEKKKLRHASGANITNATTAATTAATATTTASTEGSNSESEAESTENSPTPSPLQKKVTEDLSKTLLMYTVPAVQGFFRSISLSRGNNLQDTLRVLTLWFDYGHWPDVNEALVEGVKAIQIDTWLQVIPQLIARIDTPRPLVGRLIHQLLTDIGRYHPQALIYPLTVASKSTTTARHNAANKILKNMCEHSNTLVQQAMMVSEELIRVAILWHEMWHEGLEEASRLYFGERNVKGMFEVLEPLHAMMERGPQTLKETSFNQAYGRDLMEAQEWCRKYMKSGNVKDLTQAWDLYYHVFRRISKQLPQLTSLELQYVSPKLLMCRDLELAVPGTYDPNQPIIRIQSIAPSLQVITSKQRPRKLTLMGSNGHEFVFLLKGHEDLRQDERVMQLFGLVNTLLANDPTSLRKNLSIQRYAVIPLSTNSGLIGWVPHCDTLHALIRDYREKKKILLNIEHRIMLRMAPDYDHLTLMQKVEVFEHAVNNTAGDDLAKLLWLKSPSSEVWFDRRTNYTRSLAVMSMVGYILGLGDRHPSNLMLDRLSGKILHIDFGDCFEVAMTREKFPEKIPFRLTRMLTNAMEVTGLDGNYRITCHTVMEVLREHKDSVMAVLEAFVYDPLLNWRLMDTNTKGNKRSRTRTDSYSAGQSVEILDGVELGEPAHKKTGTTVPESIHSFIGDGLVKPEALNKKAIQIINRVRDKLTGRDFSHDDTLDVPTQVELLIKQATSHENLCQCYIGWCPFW

Row | SMILES | IC50 PI3Ka [1] [nM] | pIC50 [2] | pEC50 [3]
1 | CCc1ncnc(N2CCCC2)c1C#Cc1ccc(N)nc1 [Example B-58] | 131 | 7.38 | 6.31
2 | CCc1ncnc(N2CCC(OC)CC2)c1C#Cc1ccc(N)nc1 [Example B-44] | 58 | 8.00 | 7.12
3 | Cc1ncnc(N2CCNC(=O)CC2)c1C#Cc1ccc(N)nc1 [Example B-10] | 93 | 7.39 | 6.36
4 | CC(=O)N1CCCN(c2ncnc(C)c2C#Cc2ccc(N)nc2)CC1 [Example B-7] | 348 | 7.03 | 6.14
5 | Cc1ncnc(N2CCC(O)C(C)C2)c1C#Cc1ccc(N)nc1 (stereo not drawn) [Example B-67] | 90 | 7.37 | 6.76
6 | Cc1ncnc(N2CCN(CC(C)(C)O)CC2)c1C#Cc1ccc(N)nc1 [Example B-79] | 53 | 7.74 | 6.62
7 | CCc1ncnc(N2CCC(OC)CC2)c1C#Cc1ccc(NC)nc1 [Example B-86] | 94 | 8.05 | 6.94
8 | Cc1ncnc(N2CCCOCC2)c1C#Cc1ccc(N)nc1 [Example B-6] | 246 | 7.14 | 6.36
9 | CCc1ncnc(N2CCC3(CCNC3=O)CC2)c1C#Cc1ccc(N)nc1 [Example B-85] | 95 | 7.52 | 6.82
10 | CCc1ncnc(N2CCC(CC(C)(C)O)CC2)c1C#Cc1ccc(N)nc1 [Example B-14] | 26 | 8.05 | 7.54
11 | CCc1ncnc(N2CCC(COC)CC2)c1C#Cc1ccc(N)nc1 [Example B-39] | 87 | 7.72 | 7.30
12 | Cc1ncnc(N2CCC(O)(c3ccccc3)CC2)c1C#Cc1ccc(N)nc1 [Example B-27] | 22 | 7.64 | 7.25
13 | Cc1ncnc(N2CCn3c(C)cnc3C2)c1C#Cc1ccc(N)nc1 [Example B-76] | 60 | 7.01 | 6.63
14 | CCc1ncnc(N2CCC(O)(C(C)C)CC2)c1C#Cc1ccc(N)nc1 [Example B-63] | 15 | 9.21 | 8.10
15 | Cc1ncnc(N2CCC3(CCN(C)C3=O)CC2)c1C#Cc1ccc(N)nc1 [Example B-75] | 48 | 8.00 | 7.04
16 | CC(=O)NC1CCN(c2ncnc(C)c2C#Cc2ccc(N)nc2)CC1 [Example B-25] | 78 | 7.38 | 6.57
17 | CCc1ncnc(N2CCC(O)(C3CCCCC3)CC2)c1C#Cc1ccc(N)nc1 [Example B-12] | 189 | 7.80 | 7.03

Row | SMILES | IC50 PI3Ka [1] [nM] | pIC50 [2] | pEC50 [3]
18 | Cc1ncnc(N2CCC(O)(Cc3ccccc3)CC2)c1C#Cc1ccc(N)nc1 [Example B-28] | 70 | 7.30 | 6.71
19 | CCc1ncnc(N2CCN(C(=O)c3ccccc3)CC2)c1C#Cc1ccc(N)nc1 [Example G-5] | 110 | 6.80 | 6.65
20 | CCc1ncnc(N2CCCC(CO)C2)c1C#Cc1ccc(C)nc1 (stereo not drawn) [Example B-71] | 90 | 6.97 | 6.41
21 | CCc1ncnc(N2CCC(CCO)CC2)c1C#Cc1ccc(C)nc1 [Example B-29] | 88 | 7.17 | 6.63
22 | Cc1ncnc(N2CCC(CCO)CC2)c1C#Cc1ccc(N)nc1 [Example B-30] | 14 | 8.05 | 7.31
23 | CCc1ncnc(N2CCN(S(C)(=O)=O)CC2)c1C#Cc1ccc(N)nc1 [Example B-43] | 88 | 7.80 | 6.86
24 | CCc1ncnc(N2CCC(NC(C)=O)CC2)c1C#Cc1ccc(N)nc1 [Example B-21] | 83 | 7.72 | 6.79
25 | CCc1ncnc(N2CCC(CO)CC2)c1C#Cc1ccc(C)nc1 [Example B-72] | 134 | 7.15 | 6.32
26 | CCc1ncnc(N2CC[S+]([O-])CC2)c1C#Cc1ccc(N)nc1 [Example B-52] | 104 | 7.55 | 6.74
27 | CCc1ncnc(N2CCNC(=O)CC2)c1C#Cc1ccc(N)nc1 [Example B-54] | 133 | 7.85 | 6.68
28 | CCc1ncnc(N2CCC3(CCN(C)C3=O)CC2)c1C#Cc1ccc(N)nc1 [Example B-77] | 67 | 8.10 | 7.37
29 | CCc1ncnc(N2CCN(C(=O)NC)CC2)c1C#Cc1ccc(N)nc1 [Example G-1] | 33 | 7.08 | 6.67
30 | Cc1ncnc(N2CCN(C3CC3)CC2)c1C#Cc1ccc(N)nc1 [Example B-5] | 58 | 8.00 | 6.93
31 | CCc1ncnc(N2CCC(O)(C(C)C)CC2)c1C#Cc1ccc(C)nc1 [Example B-35] | 172 | 7.64 | 6.77
32 | COCCN1CCN(c2ncnc(C)c2C#Cc2ccc(N)nc2)CC1 [Example B-2] | 145 | 7.49 | 6.52
33 | CCc1ncnc(N2CCC(OCCOC)CC2)c1C#Cc1ccc(N)nc1 [Example B-37] | 89 | 7.44 | 6.83
34 | Cc1ncnc(N2CCC(CNC(=O)C3CCCCC3)CC2)c1C#Cc1ccc(N)nc1 [Example F-6] | 51 | 7.11 | 6.56
